Values quoted from earlier work in patent US20070265345A1, “Novel Biphenyl Compounds And Their Use” (SMITHKLINE BEECHAM CORPORATION, priority 2004, published 2007).

Tested on: A549 cells

| GI50 [µM] | Structure (SMILES) |
| --- | --- |
| 0.004 | CC(=O)O[C@H]1C(=O)[C@@]2(C)[C@H]([C@H](OC(=O)c3ccccc3)[C@]3(O)C[C@H](OC(=O)[C@H](O)[C@@H](NC(=O)c4ccccc4)c4ccccc4)C(C)=C1C3(C)C)[C@]1(OC(C)=O)CO[C@@H]1C[C@@H]2O [paclitaxel] |
| 0.063 | COc1cccc2c1C(=O)c1c(O)c3c(c(O)c1C2=O)C[C@@](O)(C(=O)CO)C[C@@H]3O[C@H]1C[C@H](N)[C@H](O)[C@H](C)O1 [doxorubicin] |
| 500 | NC(=O)NO [hydroxyurea] |
| 1 | O=c1[nH]cc(F)c(=O)[nH]1 [5-fluorouracil] |
